According to patent EP2975030B1, “DIHYDROPYRIDAZINE-3,5-DIONE DERIVATIVE” (Chugai Seiyaku Kabushiki Kaisha, priority 2013, dated 2014):

Each molecule was assayed on rat small-intestinal brush border membrane vesicles (assay: Inhibitory effect on 33PO4 uptake into rat small-intestinal brush border membrane vesicles (rapid filtration method)). Conditions: 1 µM test compound; 33PO4 uptake into rat small-intestinal BBMVs, 60 seconds.
Type: biochemical, Wistar female rat
Experimental: The ^33PO4 transport activity of the small-intestinal BBMVs was determined by the rapid filtration method. […] Then, ice-cold buffer C (110 mM NaCl, 1 mM KH2PO4, and 10 mM HEPES (pH 7.5)) was added to each reaction mixture, which was immediately suction-filtered through a Millipore filter. The filter was washed with buffer C, and each sample was then dissolved in a liquid scintillator. The amount of ^33PO4 uptake into BBMVs was measured using a liquid scintillation counter. […]
`COC(=O)c1cccc(CN2C(=O)C(C(=O)Nc3ccc(C(F)(F)F)cc3-c3cc(C(F)(F)F)ncn3)=C(O)[C@@]3(C)CCCN23)c1` [Example 183] was tested, and the “Rate of uptake inhibition (%) (1 µM)” value was 82%. `CN1N(Cc2ccc(OCCN3CCN(CCO)CC3)c(F)c2F)C(=O)C(C(=O)Nc2ccc(C(F)(F)F)cc2-c2cc(C(F)(F)F)ncn2)=C(O)C12CCC2` [Example 360] was tested, and the “Rate of uptake inhibition (%) (1 µM)” value was 21%. For `COC(=O)[C@@H]1CCCN1CCOc1ccc(CN2C(=O)C(C(=O)Nc3ccc(C(F)(F)F)cc3-c3cc(C(F)(F)F)ncn3)=C(O)C3(CCC3)N2C)c(F)c1F` [Example 355], the “Rate of uptake inhibition (%) (1 µM)” value was 36%. For `C[C@]12CCCN1N(Cc1ccc(OCCN3CCOCC3)c(F)c1F)C(=O)C(C(=O)Nc1ccc(C(F)(F)F)nc1-c1cncc(C(F)(F)F)c1)=C2O` [Example 106], the “Rate of uptake inhibition (%) (1 µM)” value was 79%. For `CN(CCOc1ccc(CN2C(=O)C(C(=O)Nc3ccc(C(F)(F)F)cc3-c3cc(C(F)(F)F)ncn3)=C(O)C3(CCC3)N2C)c(F)c1F)C1CCOC1` (centres unmarked) [Example 338, 6-[[2,3-Difluoro-4-[2-[methyl(oxolan-3-yl)amino]ethoxy]phenyl]methyl]-9-hydroxy-5-methyl-7-oxo-N-[4-(trifluoromethyl)-2-[6-(trifluoromethyl)pyrimidin-4-yl]phenyl]-5,6-diazaspiro[3.5]non-8-ene-8-carboxamide], the “Rate of uptake inhibition (%) (1 µM)” value was 66%. With `CN1N(Cc2ccc(OCCN3CCN(CCOCCO)CC3)c(F)c2F)C(=O)C(C(=O)Nc2ccc(C(F)(F)F)cc2-c2cc(C(F)(F)F)ncn2)=C(O)C12CCC2` [Example 361] the “Rate of uptake inhibition (%) (1 µM)” value was 20%. `CSc1ccc(-c2cc(C(F)(F)F)ccc2NC(=O)C2=C(O)[C@@]3(C)CCCN3N(Cc3ccc(CCCCCCC(=O)O)c(F)c3F)C2=O)cn1` [Example 115, 7-[4-[[(4aR)-4-Hydroxy-4a-methyl-3-[[2-(6-methylsulfanylpyridin-3-yl)-4-(trifluoromethyl)phenyl]carbamoyl]-2-oxo-6,7-dihydro-5H-pyrrolo[1,2-b]pyridazin-1-yl]methyl]-2,3-difluorophenyl]heptanoate] was tested, and the “Rate of uptake inhibition (%) (1 µM)” value was 85%. `COCCN(CCOC)CCOc1ccc(CN2C(=O)C(C(=O)Nc3ccc(C(F)(F)F)cc3-c3cc(C(F)(F)F)ncn3)=C(O)C3(CCC3)N2C)c(F)c1F` [Example 348] was tested, and the “Rate of uptake inhibition (%) (1 µM)” value was 31%. With `COC(=O)CN(C)CCOc1ccc(CN2C(=O)C(C(=O)Nc3ccc(C(F)(F)F)cc3-c3cc(C(F)(F)F)ncn3)=C(O)C3(CCC3)N2C)c(F)c1F` [Example 346] the “Rate of uptake inhibition (%) (1 µM)” value was 42%. For `CN1N(Cc2ccc(OC3COC3)c(F)c2F)C(=O)C(C(=O)Nc2ccc(C(F)(F)F)cc2-c2cc(C(F)(F)F)ncn2)=C(O)C12CCC2` [Example 403, 6-(2,3-Difluoro-4-(oxetan-3-yloxy)benzyl)-9-hydroxy-5-methyl-7-oxo-N-(4-(trifluoromethyl)-2-(6-(trifluoromethyl)pyrimidin-4-yl)phenyl)-5,6-diazaspiro[3.5]non-8-ene-8-carboxamide], the “Rate of uptake inhibition (%) (1 µM)” value was 71%. For `C[C@]12CCCN1N(Cc1cccc(F)c1F)C(=O)C(C(=O)Nc1ccc(C(F)(F)F)cc1-c1ncnc(Cl)c1Cl)=C2O` [Example 70], the “Rate of uptake inhibition (%) (1 µM)” value was 79%. With `C[C@]12CCCN1N(Cc1ccc(F)c(F)c1)C(=O)C(C(=O)Nc1ccc(C(F)(F)F)cc1-c1ccc(C(F)(F)F)nc1)=C2O` [Example 170] the “Rate of uptake inhibition (%) (1 µM)” value was 73%. `COC(=O)CN(C)CCOc1ccc(CN2C(=O)C(C(=O)Nc3ccc(C(F)(F)F)cc3-c3cc(C(F)(F)F)ncn3)=C(O)C3(CCCC3)N2C)c(F)c1F` [Example 368] was tested, and the “Rate of uptake inhibition (%) (1 µM)” value was 26%. For `COc1cncc(-c2cc(C(F)(F)F)ccc2NC(=O)C2=C(O)[C@@]3(C)CCCN3N(Cc3cccc(F)c3F)C2=O)c1` [Example 81], the “Rate of uptake inhibition (%) (1 µM)” value was 74%. `COc1ccc(OC)c(CN2C(=O)C(C(=O)Nc3ccc(C(F)(F)F)cc3-c3ccc(C(F)(F)F)nc3)=C(O)[C@@]3(C)CCCN23)c1` [Example 176] was tested, and the “Rate of uptake inhibition (%) (1 µM)” value was 75%. With `COC(=O)c1cc(F)c(CN2C(=O)C(C(=O)Nc3ccc(C(F)(F)F)cc3-c3ccc(C(F)(F)F)nc3)=C(O)[C@@]3(C)CCCN23)c(F)c1` [Example 165, Methyl 4-[[(4aR)-4-Hydroxy-4a-methyl-2-oxo-3-[[4-(trifluoromethyl)-2-[6-(trifluoromethyl)pyridin-3-yl]phenyl]carbamoyl]-6,7-dihydro-5H-pyrrolo[1,2-b]pyridazin-1-yl]methyl]-3,5-difluorobenzoate] the “Rate of uptake inhibition (%) (1 µM)” value was 75%. `CN1[C@@H](C(C)(C)C)C(O)=C(C(=O)Nc2ccc(C(F)(F)F)cc2C(F)(F)F)C(=O)N1Cc1ccc(OCCN2CCOCC2)c(F)c1F` [Example 277] was tested, and the “Rate of uptake inhibition (%) (1 µM)” value was 41%. With `Cc1ccccc1CN1C(=O)C(C(=O)Nc2ccc(C(F)(F)F)cc2-c2cc(C(F)(F)F)ncn2)=C(O)[C@@]2(C)CCCN12` [Example 185] the “Rate of uptake inhibition (%) (1 µM)” value was 83%. `C[C@]12CCCN1N(Cc1cccc([N+](=O)[O-])c1)C(=O)C(C(=O)Nc1ccc(Br)c(F)c1)=C2O` [Example 27] was tested, and the “Rate of uptake inhibition (%) (1 µM)” value was 76%. With `C[C@]12CCCN1N(Cc1cc(F)ccc1F)C(=O)C(C(=O)Nc1ccc(C(F)(F)F)cc1-c1ccc(C(F)(F)F)nc1)=C2O` [Example 172] the “Rate of uptake inhibition (%) (1 µM)” value was 72%. With `C[C@]12CCCN1N(Cc1ccc(OCCN3CCOCC3)c(F)c1F)C(=O)C(C(=O)Nc1ccc(Cl)cc1-c1ccc(C(F)(F)F)nc1)=C2O` [Example 102] the “Rate of uptake inhibition (%) (1 µM)” value was 65%. With `COCCN(C)CCOc1c(-c2cccnc2)cc(CN2C(=O)C(C(=O)Nc3ccc(C(F)(F)F)cc3-c3cc(C(F)(F)F)ncn3)=C(O)C3(CCCC3)N2C)c(F)c1F` [Example 440, 9-[[2,3-Difluoro-4-[2-[2-methoxyethyl(methyl)amino]ethoxy]-5-(3-pyridinyl)phenyl]methyl]-6-hydroxy-10-methyl-8-oxo-N-[4-(trifluoromethyl)-2-[6-(trifluoromethyl)pyrimidin-4-yl]phenyl]-9,10-diazaspiro[4.5]dec-6-ene-7-carboxamide] the “Rate of uptake inhibition (%) (1 µM)” value was 28%. For `C[C@]12CCCN1N(Cc1ccc(F)cc1)C(=O)C(C(=O)Nc1ccc(C(F)(F)F)cc1-c1ccc(C(F)(F)F)nc1)=C2O` [Example 199], the “Rate of uptake inhibition (%) (1 µM)” value was 79%. With `CN(CCOCCOCCOCCOCCOc1ccc(CN2C(=O)C(C(=O)Nc3ccc(C(F)(F)F)cc3-c3cc(C(F)(F)F)ncn3)=C(O)C3(CCCC3)N2C)c(F)c1F)C[C@@H](O)[C@H](O)[C@@H](O)[C@@H](O)CO` [Example 421, 7-[[2,3-Difluoro-4-[2-[2-[2-[2-[2-[methyl-[(2R,3S,4S,5S)-2,3,4,5,6-pentahydroxyhexyl]amino]ethoxy]ethoxy]ethoxy]ethoxy]ethoxy]phenyl]methyl]-10-hydroxy-6-methyl-8-oxo-N-[4-(trifluoromethyl)-2-[6-(trifluoromethyl)pyrimidin-4-yl]phenyl]-6,7-diazaspiro[4.5]dec-9-ene-9-carboxamide] the “Rate of uptake inhibition (%) (1 µM)” value was 24%. For `COCCN(C)CCOc1c(I)cc(CN2C(=O)C(C(=O)Nc3ccc(C(F)(F)F)cc3-c3cc(C(F)(F)F)ncn3)=C(O)C3(CCCC3)N2C)c(F)c1F` [Example 437, 7-[[2,3-Difluoro-5-iodo-4-[2-[2-methoxyethyl(methyl)amino]ethoxy]phenyl]methyl]-10-hydroxy-6-methyl-8-oxo-N-[4-(trifluoromethyl)-2-(6-(trifluoromethyl)pyrimidin-4-yl]phenyl]-6,7-diazaspiro[4.5]dec-9-ene-9-carboxamide], the “Rate of uptake inhibition (%) (1 µM)” value was 45%. `CN1N(Cc2ccc(OCCCOCCCO)c(F)c2F)C(=O)C(C(=O)Nc2ccc(C(F)(F)F)cc2-c2cc(C(F)(F)F)ncn2)=C(O)C12CCCC2` [Example 398] was tested, and the “Rate of uptake inhibition (%) (1 µM)” value was 34%. In the case of “(4aR)-1-[(2,3-Difluorophenyl)methyl]-4-hydroxy-N-[5-methyl-2-(trifluoromethyl)furan-3-yl]-2-oxo-4a-propyl-6,7-dihydro-5H-pyrrolo[1,2-b]pyridazine-3-carboxamide [Example 12]”, the “Rate of uptake inhibition (%) (1 µM)” value is reported as 27%. With `Cc1c(-c2cc(C(F)(F)F)ccc2NC(=O)C2=C(O)C3(CCCCC3)N(C)N(Cc3ccc(OCCN4CCOCC4)c(F)c3F)C2=O)ncnc1C(F)(F)F` [Example 296] the “Rate of uptake inhibition (%) (1 µM)” value was 17%. In the case of `Cc1c(-c2cc(C(F)(F)F)ccc2NC(=O)C2=C(O)C3(CCCC3)N(C)N(Cc3ccc(OCCN4CCOCC4)c(F)c3F)C2=O)ncnc1C(F)(F)F` [Example 290], the “Rate of uptake inhibition (%) (1 µM)” value is reported as 59%. `C[C@]12CCCN1N(Cc1c(F)cccc1F)C(=O)C(C(=O)Nc1ccc(C(F)(F)F)cc1-c1ccc(C(F)(F)F)nc1)=C2O` [Example 203] was tested, and the “Rate of uptake inhibition (%) (1 µM)” value was 91%. For `C[C@]12CCCN1N(Cc1cccc(OC(F)F)c1)C(=O)C(C(=O)Nc1ccc(C(F)(F)F)cc1-c1ccc(C(F)(F)F)nc1)=C2O` [Example 167], the “Rate of uptake inhibition (%) (1 µM)” value was 73%. For `C[C@]12CCCN1N(Cc1cccc(F)c1F)C(=O)C(C(=O)Nc1ccc(C(F)(F)F)cc1-c1cc(Cl)cnc1Cl)=C2O` [Example 84], the “Rate of uptake inhibition (%) (1 µM)” value was 91%. `C[C@]12CCCN1N(Cc1cccc(F)c1F)C(=O)C(C(=O)Nc1ccc(C(F)(F)F)cc1-c1ccc(C(F)(F)F)nc1Br)=C2O` [Example 85] was tested, and the “Rate of uptake inhibition (%) (1 µM)” value was 71%. For `COc1cccc(-c2cc(C(F)(F)F)ccc2NC(=O)C2=C(O)[C@@]3(C)CCCN3N(Cc3ccc(C#CCOCCCO)c(F)c3F)C2=O)c1OC` [Example 127], the “Rate of uptake inhibition (%) (1 µM)” value was 95%. In the case of `CN1N(Cc2ccc(OCCN3CCC(N4CCOCC4)CC3)c(F)c2F)C(=O)C(C(=O)Nc2ccc(C(F)(F)F)cc2-c2cc(C(F)(F)F)ncn2)=C(O)C12CCC2` [Example 358], the “Rate of uptake inhibition (%) (1 µM)” value is reported as 34%.
